Assay results taken from patent publication US20210178009A1, “WOUND CARE PRODUCTS COMPRISING ALEXIDINE” (TELEFLEX MEDICAL INCORPORATED, priority 2015, published 2021).

Tests used:
Assay in all cases: Time to kill comparison
Format in all cases: cell-based
Staphylococcus aureus = conditions: 128 ppm; for exposure time to complete kill: S. aureus, challenge 10^4-10^5 CFU/mL; for Number of Microbial Colonies: Staphylococcus aureus, 5 replicates, TNTC = too numerous to count
Method: (§1) Alexidine and Chlorhexidine, both at a concentration of 128 ppm were exposed to a Gram positive bacteria (Staphylococcus aureus), a Gram negative bacteria (Pseudomonas aeruginosa), and a fungus (Candida albicans). The challenge concentration for each organism was 10^4-10^5 CFU/mL, and the exposure time varied from 0.5-60 minutes. […] Complete kill of all three organisms was observed within 0.5-1 minute of Alexidine exposure.

Candida albicans = conditions: 128 ppm; for exposure time to complete kill: C. albicans, challenge 10^4-10^5 CFU/mL; for Number of Microbial Colonies: Candida albicans, 5 replicates, TNTC = too numerous to count
Method: as §1

Pseudomonas aeruginosa = conditions: P. aeruginosa, 128 ppm, challenge 10^4-10^5 CFU/mL
Method: as §1

SMILES | exposure time to complete kill (Staphylococcus aureus) | exposure time to complete kill (Candida albicans) | exposure time to complete kill (Pseudomonas aeruginosa) | Number of Microbial Colonies (Staphylococcus aureus; exposure 0.5 minutes) | Number of Microbial Colonies (Staphylococcus aureus; exposure 1 minute) | Number of Microbial Colonies (Staphylococcus aureus; exposure 5 minutes) | Number of Microbial Colonies (Candida albicans; exposure 0.5 minutes) | Number of Microbial Colonies (Candida albicans; exposure 1 minute) | Number of Microbial Colonies (Candida albicans; exposure 5 minutes)
CCCCC(CC)CNC(=N)NC(=N)NCCCCCCNC(=N)NC(=N)NCC(CC)CCCC (stereo not drawn) [Alexidine] | 0.5 to 1 min | 0.5 to 1 min | 0.5 to 1 min | – | – | – | – | – | –
[H]/N=C(\N/C(=N/[H])NCCCCCCNC(=N)NC(=N)Nc1ccc(Cl)cc1)Nc1ccc(Cl)cc1 [Chlorhexidine] | 60 min | 60 min | 5 min | TNTC | TNTC | TNTC | TNTC | TNTC | TNTC
